The source of these data is patent US11259522B2, “Control of resistant pests” (priority 2017, dated 2022).

A word on the mortality: it is the share of the test organisms that died.

Values after ≈ are worked out from the molar mass of the structure shown. Like-named read-outs stand apart in the source and are kept apart here.

The test system of series [1] is Aedes aegypti PRS Puerto Rican strain (synthetic pyrethroid resistant) L3 larvae. Nature of the series: Mosquito larval dose response assay, PRS strain. The conditions noted are these: read-out: Lethal Concentration (LC50) PRS Strain.
The subject of series [2] is Halotydeus destructor susceptible population. Kind of series: Coated plastic vial bioassay, redlegged earth mite, susceptible population. The conditions noted are these: for mortality at 300 µg/mL: 300 mg a.i./L. The series is classed as in vivo. As to the method:
The efficacy of flavesone against H. destructor was assessed using the glass vial technique developed by Hoffmann et al. (1997, Exp. Appl. Acarol., 21:151-162), adapted for plastic vials. A susceptible population of mites was collected from capeweed (Arctotheca calendula) at a Victorian site (37° 40′33″S, 145° 07′ 45″E) that had no known history of insecticide application. Following collection, samples were stored in small plastic containers with leaf material and paper towel to absorb excess moisture. Containers were kept at 4° C. prior to testing.
The test compositions included 0.1% Tween 20 non-ionic surfactant to aid the spread of insecticides when coating plastic vials. This concentration of Tween 20 has been previously shown to have no toxic effect on H. destructor. For each insecticide concentration tested, 3, 10, 30, 100, 300, 1000, 3000 and 10000 mg a.i./L (ppm), approximately 10 mL of solution was poured into a 15 mL plastic vial and swirled to ensure a complete coating, with excess liquid removed. Eight vials were coated per concentration and were left to dry overnight. Control vials were treated in the same way but with water used in place of test composition.
Eight susceptible H. destructor mites were then placed into each vial along with a leaf of common vetch (Vicia sativa). The leaf was added to provide food and increase humidity. Vials were then sealed with a lid and placed at 18° C. After 4, 6, 8 and 24 hours of exposure, the mites were scored as alive (moving freely), incapacitated (inhibited movement), or dead (no movement over a 5 second period). […]
The data produced in the assays were assessed for concentrations that caused 50, 90 and 99% mortality (lethal concentration, LC), together with 95% confidence intervals (CIs) and were estimated from observations of mortality after 24 hours exposure using a binomial logistic regression (Robertson & Preisler, 1992, Pesticide Bioassays with Arthropods. CRC: Boca Raton; Venables & Ripley, 2002, Modern Applied Statistics with S. Springer: New York). Population differences were tested by comparing the change in model deviance with and without the population factor (different regression intercepts for each population). Differences in regression slopes between populations were tested by comparing the change in model deviance with and without the population×dose interaction term. The resistance ratio of the insecticide-resistant population was estimated as the ratio of its LC50 to that of the susceptible population. All analyses were performed using R 3.3. (R Core Team 2017, R: A language and environment for statistical computing. R Foundation for Statistical Computing, Vienna, Austria. http://www.R-project.org).

The subject of series [3] is Sitophilus oryzae strain QSO393 (resistant to fenitrothion). Kind of series: Grain protectant bioassay on treated wheat, S. oryzae resistant. The series is classed as in vivo. The conditions noted are these: for Progeny reduction (%): vs untreated control.
Setting [4] is: Susceptible population, 24 hours exposure.

With `CC(C)C(=O)C1C(=O)C(C)(C)C(=O)C(C)(C)C1=O` [Flavesone, 1-isobutyroyl-3,3,5,5-tetramethylcyclohexane-2,4,6-trione], the LC50 in series [1] (24 h) came to 40.9 mg/L (≈ 162 µM); in series [1] (48 h), 40.5 mg/L (≈ 161 µM); in series [1] (72 h), 39.7 mg/L (≈ 157 µM); in series [2] (Halotydeus destructor, Susceptible population, 24 hours exposure, read-out: LC50 (mg a.i./L)), 40.6 mg/L (≈ 161 µM). Further, the mortality in series [2] (Example 9, all application rates above 300 mg a.i./L, by 4 hours exposure) worked out at 100%. Also, the mortality at 300 µg/mL came out at 55% in series [2] (Halotydeus destructor, Example 9, 4 hours of exposure, read-out: mortality (average)) and 100% in series [2] (Halotydeus destructor, Example 9, by 8 hours of exposure, read-out: mortality). Moreover, the “LC90 (mg a.i./L)” value in series [2] (setting [4]) stood at 142.55 mg a.i./L. Also, the “LC99 (mg a.i./L)” value in series [2] (setting [4]) is listed as 561.35 mg a.i./L. In addition, the Live adult progeny in series [3] (25 mg/kg, mean ± SE) is 572.7 ± 100.9; in series [3] (60 mg/kg, mean ± SE) it was 430.0 ± 51.0. The “Progeny reduction (%)” value is listed as 6.1% in series [3] (25 mg/kg); 29.5% in series [3] (60 mg/kg); 29% in series [3] (60 mg/kg, listed as flavesone). In series [3] (Sitophilus oryzae, 336 h, 25 mg/kg, 2 weeks, mean ± SE, read-out: Adult mortality (%)), the mortality at 25 mg/kg came to 0.7 ± 0.7%. Further, the mortality at 60 mg/kg in series [3] (Sitophilus oryzae, 336 h, 60 mg/kg, 2 weeks, mean ± SE, read-out: Adult mortality (%)) was 0.7 ± 0.7%.
